Source: the NIST ThermoML archive (doi:10.1021/je1005517)
Numbers after ± are expanded uncertainties.

Experiment: activity coefficient (dimensionless); of the first substance listed, at infinite dilution; xn = mol fraction of the nth substance listed
Conditions: Liquid, GC, x1 = 0

SMILES | activity coefficient (338.15 K, 101 kPa) | activity coefficient (343.15 K, 101 kPa) | activity coefficient (348.15 K, 101 kPa) | activity coefficient (353.15 K, 101 kPa) | activity coefficient (333.15 K, 101 kPa) | activity coefficient (333.15 K, 101.3 kPa) | activity coefficient (338.15 K, 101.3 kPa) | activity coefficient (343.15 K, 101.3 kPa) | activity coefficient (348.15 K, 101.3 kPa) | activity coefficient (353.15 K, 101.3 kPa)
CCCCCl [1-chlorobutane] + CCCCCCCCCCCCCCCCCCCCO | 0.0991 ± 0.0059 | 0.0954 ± 0.0057 | 0.0919 ± 0.0055 | 0.0886 ± 0.0053 | – | – | – | – | – | –
CCCCCl [1-chlorobutane] + CCCCCCCCCCCCCCCCCCO | 0.036 ± 0.0022 | 0.0338 ± 0.002 | 0.0321 ± 0.0019 | 0.03 ± 0.0018 | 0.0389 ± 0.0023 | – | – | – | – | –
CCCCl [1-chloropropane] + CCCCCCCCCCCCCCCCCCCCO | 0.0779 ± 0.0047 | 0.0778 ± 0.0047 | 0.0778 ± 0.0047 | 0.0777 ± 0.0047 | – | – | – | – | – | –
CCCCl [1-chloropropane] + CCCCCCCCCCCCCCCCCCO | – | – | – | – | – | 0.0331 ± 0.002 | 0.0294 ± 0.0018 | 0.0269 ± 0.0016 | 0.0245 ± 0.0015 | 0.0225 ± 0.0014
C=CCCCCC [1-heptene] + CCCCCCCCCCCCCCCCCCCCO | 0.124 ± 0.0074 | 0.118 ± 0.0071 | 0.113 ± 0.0068 | 0.108 ± 0.0065 | – | – | – | – | – | –
C=CCCCCC [1-heptene] + CCCCCCCCCCCCCCCCCCO | – | – | – | – | – | 0.0431 ± 0.0026 | 0.0417 ± 0.0025 | 0.0407 ± 0.0024 | 0.0397 ± 0.0024 | 0.0388 ± 0.0023
C=CCCC [1-pentene] + CCCCCCCCCCCCCCCCCCCCO | 0.0813 ± 0.0049 | 0.0742 ± 0.0045 | 0.0664 ± 0.004 | 0.06 ± 0.0036 | – | – | – | – | – | –
C=CCCC [1-pentene] + CCCCCCCCCCCCCCCCCCO | – | – | – | – | – | 0.0261 ± 0.0016 | 0.0245 ± 0.0015 | 0.0234 ± 0.0014 | 0.0222 ± 0.0013 | 0.0213 ± 0.0013
CC(C)=O [acetone] + CCCCCCCCCCCCCCCCCCCCO | 0.0557 ± 0.0033 | 0.0572 ± 0.0034 | 0.0587 ± 0.0035 | 0.0602 ± 0.0036 | – | – | – | – | – | –
CC(C)=O [acetone] + CCCCCCCCCCCCCCCCCCO | 0.0179 ± 0.0011 | 0.0174 ± 0.001 | 0.017 ± 0.001 | 0.0166 ± 0.001 | 0.0185 ± 0.0011 | – | – | – | – | –
CC#N [acetonitrile] + CCCCCCCCCCCCCCCCCCCCO | 0.309 ± 0.019 | 0.265 ± 0.016 | 0.229 ± 0.014 | 0.197 ± 0.012 | – | – | – | – | – | –
CC#N [acetonitrile] + CCCCCCCCCCCCCCCCCCO | 0.0969 ± 0.0058 | 0.0901 ± 0.0054 | 0.0832 ± 0.005 | 0.0766 ± 0.0046 | 0.108 ± 0.0065 | – | – | – | – | –
CCCCO [butan-1-ol] + CCCCCCCCCCCCCCCCCCCCO | 0.431 ± 0.026 | 0.387 ± 0.023 | 0.352 ± 0.021 | 0.316 ± 0.019 | – | – | – | – | – | –
CCCCO [butan-1-ol] + CCCCCCCCCCCCCCCCCCO | – | – | – | – | – | 0.154 ± 0.0092 | 0.136 ± 0.008 | 0.121 ± 0.0073 | 0.11 ± 0.0066 | 0.0992 ± 0.006
CCCCOC(C)=O [butyl ethanoate] + CCCCCCCCCCCCCCCCCCCCO | 0.14 ± 0.0084 | 0.131 ± 0.0079 | 0.123 ± 0.0074 | 0.115 ± 0.0069 | – | – | – | – | – | –
CCCCOC(C)=O [butyl ethanoate] + CCCCCCCCCCCCCCCCCCO | – | – | – | – | – | 0.0526 ± 0.0032 | 0.0468 ± 0.0028 | 0.0428 ± 0.0026 | 0.0391 ± 0.0023 | 0.0358 ± 0.0021
C1CCCCC1 [cyclohexane] + CCCCCCCCCCCCCCCCCCCCO | 0.108 ± 0.0065 | 0.102 ± 0.0061 | 0.0969 ± 0.0058 | 0.0918 ± 0.0055 | – | – | – | – | – | –
C1CCCCC1 [cyclohexane] + CCCCCCCCCCCCCCCCCCO | 0.0337 ± 0.002 | 0.0315 ± 0.0019 | 0.0294 ± 0.0018 | 0.0274 ± 0.0016 | 0.0365 ± 0.0022 | – | – | – | – | –
ClCCl [dichloromethane] + CCCCCCCCCCCCCCCCCCCCO | 0.079 ± 0.0047 | 0.0642 ± 0.0039 | 0.0532 ± 0.0032 | 0.0435 ± 0.0026 | – | – | – | – | – | –
ClCCl [dichloromethane] + CCCCCCCCCCCCCCCCCCO | – | – | – | – | – | 0.0262 ± 0.0016 | 0.0233 ± 0.0014 | 0.0212 ± 0.0013 | 0.0194 ± 0.0012 | 0.0178 ± 0.0011
CCOCC [diethyl ether] + CCCCCCCCCCCCCCCCCCCCO | 0.0652 ± 0.0039 | 0.0624 ± 0.0037 | 0.0598 ± 0.0036 | 0.0572 ± 0.0034 | – | – | – | – | – | –
CCOCC [diethyl ether] + CCCCCCCCCCCCCCCCCCO | 0.0235 ± 0.0014 | 0.0219 ± 0.0013 | 0.0204 ± 0.0012 | 0.019 ± 0.001 | 0.0257 ± 0.0015 | – | – | – | – | –
